Data reported in patent US10251394B2, “Molecules having pesticidal utility, and intermediates, compositions, and processes, related thereto” (Dow AgroSciences LLC, priority 2016, dated 2019).

Key:
Type in all cases: in vivo
[1] = system: Beet Armyworm (Spodoptera exigua); experiment: Bioassay on Beet Armyworm (BAW), 128-well diet tray assay; conditions: Beet Armyworm, Table ABC, read-out: BAW rating
Outline: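 Percent mortality, averaged over eight wells, was scored after five to seven days at 25° C under 14:10 light-dark. Each well's diet carried 50 μg/cm^2 of test molecule applied in acetone-water (90:10) and dried before one to five second-instar larvae were added.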

[2] = system: Cabbage Looper (Trichoplusia ni); experiment: Bioassay on Cabbage Looper (CL), 128-well diet tray assay; conditions: Cabbage Looper, Table ABC, read-out: CL rating
Outline: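 Mortality after five to seven days at 25° C (14:10 photoperiod), averaged over eight wells per compound. Diet in each well carried 50 μg/cm^2 of dried test molecule and received one to five second-instar larvae.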

[3] = system: Green Peach Aphid (Myzus persicae); experiment: Bioassay on Green Peach Aphid (GPA), foliar spray on cabbage seedlings; conditions: 72 h, Table ABC, read-out: GPA rating
Experimental: Example B: Bioassays on Green Peach Aphid (Myzus Persicae, MYZUPE) (“GPA”) Certain molecules disclosed in this document were tested against GPA using procedures described in the following example. In the reporting of the results, the “GPA & YFM Rating Table” was used (See Table Section). Cabbage seedlings grown in 3-inch pots, with 2-3 small (3-5 cm) true leaves, were used as test substrate. The seedlings were infested with 20-50 GPA (wingless adult and nymph stages) one day prior to chemical application. Four pots with individual seedlings were used for each treatment. Test molecules (2 mg) were dissolved in 2 mL of acetone/methanol (1:1) solvent, forming stock solutions of 1000 ppm test molecule. The stock solutions were diluted 5× with 0.025% Tween 20 in water to obtain the solution at 200 ppm test molecule. A hand-held aspirator-type sprayer was used for spraying a solution to both sides of […] leaves until runoff. Reference plants (solvent check) were sprayed with the diluent only containing 20% by volume of acetone/methanol (1:1) solvent. Treated plants were held in a holding room for three days at approximately 25° C. and ambient relative humidity (RH) prior to grading. Evaluation was conducted by counting the number of live aphids per plant under a microscope. Percent Control was measured by using Abbott's correction formula (W. S. Abbott, “A Method of Computing the Effectiveness of an Insecticide” J. Econ. Entomol. 18 (1925), pp. 265-267) as follows. Corrected % Control=100*(X−Y)/X • where • X=No. of live aphids on solvent check plants and • Y=No. of live aphids on treated plants The results are indicated in the table entitled “Table ABC: Biological Results” (See Table Section).

[4] = system: Yellow Fever Mosquito (Aedes aegypti); experiment: Bioassay on Yellow Fever Mosquito (YFM) larvae, 96-well plate; conditions: Table ABC
Outline: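 About 1-day-old larvae in water with liver powder were added to wells holding compound from a 4000 ppm DMSO master diluted in 90:10 water:acetone. Plates covered and kept at room temperature for 3 days, then each well scored for mortality on a rating scale.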

Structure (SMILES) | pest or weed control at 50 µg/cm2 [1] | pest or weed control at 50 µg/cm2 [2] | pest or weed control at 200 µg/mL [3] | YFM rating [4]
O=C(NC1(C(=O)NCC(F)(F)F)CC1)c1ccc(/C(F)=C/C(c2cc(Cl)c(Cl)c(Cl)c2)C(F)(F)F)cc1C(F)(F)F (stereo not shown) [F3, (Z)-4-(1,4,4,4-Tetrafluoro-3-(3,4,5-trichlorophenyl)but-1-en-1-yl)-N-(1-((2,2,2-trifluoroethyl)carbamoyl)cyclopropyl)-2-(trifluoromethyl)benzamide] | 50 to 100% | 50 to 100% | 80 to 100% | 
C=CCc1c(Cl)cc(C(/C=C(\F)c2ccc(C(=O)N[C@H](C)C(=O)NCC(F)(F)F)c(C(F)(F)F)c2)C(F)(F)F)cc1Cl (stereo partly drawn) [F146, 4-((Z)-3-(4-Allyl-3,5-dichlorophenyl)-1,4,4,4-tetrafluorobut-1-en-1-yl)-N—((R)-1-oxo-1-((2,2,2-trifluoroethyl)amino)propan-2-yl)-2-(trifluoromethyl)benzamide] | 50 to 100% | 50 to 100% | 0 to 80% | B (More than 0-Less than 80)
O=C(N[C@@H]1CON(CC(F)(F)F)C1=O)c1ccc(/C(F)=C/C(c2cc(F)c(F)c(F)c2)C(F)(F)F)cc1C(F)(F)F (stereo partly drawn) [F155, N—((R)-3-Oxo-2-(2,2,2-trifluoroethyl)isoxazolidin-4-yl)-4-((Z)-1,4,4,4-tetrafluoro-3-(3,4,5-trifluorophenyl)but-1-en-1-yl)-2-(trifluoromethyl)benzamide] | 50 to 100% | 50 to 100% | 80 to 100% | A (80-100)
O=C(CNC(=O)c1ccc(/C(F)=C/C(c2cc(F)c(F)c(F)c2)C(F)(F)F)cc1C(F)(F)F)NCC(F)(F)F (stereo not shown) [F160, (Z)—N-(2-Oxo-2-((2,2,2-trifluoroethyl)amino)ethyl)-4-(1,4,4,4-tetrafluoro-3-(3,4,5-trifluorophenyl)but-1-en-1-yl)-2-(trifluoromethyl)benzamide] | 50 to 100% | 50 to 100% | 80 to 100% | A (80-100)
CCN(CC(F)(F)F)C(=O)CNC(=O)c1ccc(/C(F)=C/C(c2cc(Cl)c(Cl)c(Cl)c2)C(F)(F)F)cc1C(F)(F)F (stereo not shown) [F167, (Z)—N-(2-(ethyl(2,2,2-trifluoroethyl)amino)-2-oxoethyl)-4-(1,4,4,4-tetrafluoro-3-(3,4,5-trichlorophenyl)but-1-en-1-yl)-2-(trifluoromethyl)benzamide] | 50 to 100% | 50 to 100% | 80 to 100% | A (80-100)
O=C(N[C@@H]1CON(CC(F)(F)F)C1=O)c1ccc(/C(F)=C/C(c2cc(Cl)c(Cl)c(Cl)c2)C(F)F)cc1C(F)(F)F (stereo partly drawn) [F177, N—((R)-3-Oxo-2-(2,2,2-trifluoroethyl)isoxazolidin-4-yl)-4-((Z)-1,4,4-trifluoro-3-(3,4,5-trichlorophenyl)but-1-en-1-yl)-2-(trifluoromethyl)benzamide] | 50 to 100% | 50 to 100% | 80 to 100% | A (80-100)
O=C(N[C@@H]1CON(CC(F)(F)F)C1=O)c1ccc(/C(F)=C/C(c2ccc(C(F)(F)F)c(Cl)c2)C(F)(F)F)cc1C(F)(F)F (stereo partly drawn) [F180, 4-((Z)-3-(3-Chloro-4-(trifluoromethyl)phenyl)-1,4,4,4-tetrafluorobut-1-en-1-yl)-N—((R)-3-oxo-2-(2,2,2-trifluoroethyl)isoxazolidin-4-yl)-2-(trifluoromethyl)benzamide] | 50 to 100% | 50 to 100% | 80 to 100% | 
CN(CC(F)(F)F)C(=O)CNC(=O)c1ccc(/C(F)=C/C(c2ccc(F)c(Cl)c2)C(F)(F)F)cc1C(F)(F)F (stereo not shown) [PF6, (Z)-4-(3-(3-Chloro-4-fluorophenyl)-1,4,4,4-tetrafluorobut-1-en-1-yl)-N-(2-(methyl(2,2,2-trifluoroethyl)amino]-2-oxoethyl)-2-(trifluoromethyl)benzamide] | 50 to 100% | 50 to 100% | 80 to 100% | A (80-100)
Cc1cc(C(/C=C(\F)c2ccc(C(=O)NC3(C(=O)N(C)CC(F)(F)F)CC3)c(C(F)(F)F)c2)C(F)(F)F)cc(Cl)c1Cl (stereo not shown) [PF16, (Z)-4-(3-(3,4-Dichloro-5-methylphenyl)-1,4,4,4-tetrafluorobut-1-en-1-yl)-N-(1-(methyl(2,2,2-trifluoroethyl)carbamoyl)cyclopropyl)-2-(trifluoromethyl)benzamide] | 50 to 100% | 50 to 100% | 0 to 80% | A (80-100)
CN(CC(F)(F)F)C(=O)CNC(=O)c1ccc(/C(F)=C/C(c2ccc(Br)c(Cl)c2)C(F)(F)F)cc1C(F)(F)F (stereo not shown) [PF24, (Z)-4-(3-(4-Bromo-3-chlorophenyl)-1,4,4,4-tetrafluorobut-1-en-1-yl)-N-(2-(methyl(2,2,2-trifluoroethyl)amino)-2-oxoethyl)-2-(trifluoromethyl)benzamide] | 50 to 100% | 50 to 100% | 80 to 100% | A (80-100)
O=C(NC1(C(=O)NCC(F)(F)F)CC1)c1ccc(/C(F)=C/C(c2ccc(Br)c(Cl)c2)C(F)(F)F)cc1C(F)(F)F (stereo not shown) [PF27] | 50 to 100% | 50 to 100% | 80 to 100% | B (More than 0-Less than 80)
O=C(NC1(C(=O)NCC(F)(F)F)CC1)c1ccc(/C(F)=C/C(c2cc(Cl)cc(Br)c2)C(F)(F)F)cc1C(F)(F)F (stereo not shown) [PF32, (Z)-4-(3-(3-Bromo-5-chlorophenyl)-1,4,4,4-tetrafluorobut-1-en-1-yl)-N-(1-((2,2,2-trifluoroethyl)carbamoyl)cyclopropyl)-2-(trifluoromethyl)benzamide] |  |  | 0 to 80% | 
CN(CC(F)(F)F)C(=O)C1(NC(=O)c2ccc(/C(F)=C/C(c3ccc(Cl)c(Br)c3)C(F)(F)F)cc2C(F)(F)F)CC1 (stereo not shown) [PF39, (Z)-4-(3-(3-Bromo-4-chlorophenyl)-1,4,4,4-tetrafluorobut-1-en-1-yl)-N-(1-(methyl(2,2,2-trifluoroethyl)carbamoyl)cyclopropyl)-2-(trifluoromethyl)benzamide] | 50 to 100% | 50 to 100% |  | B (More than 0-Less than 80)
O=C(CNC(=S)c1ccc(/C(F)=C/C(c2cc(Cl)c(Cl)c(Cl)c2)C(F)(F)F)cc1C(F)(F)F)NCC(F)(F)F (stereo not shown) [PF82, (Z)-2-(4-(1,4,4,4-tetrafluoro-3-(3,4,5-trichlorophenyl)but-1-en-1-yl)-2-(trifluoromethyl)phenylthioamido)-N-(2,2,2-trifluoroethyl)acetamide] | 50 to 100% | 50 to 100% |  | A (80-100)
O=C(NCC(=S)NCC(F)(F)F)c1ccc(/C(F)=C/C(c2cc(Cl)c(Cl)c(Cl)c2)C(F)(F)F)cc1C(F)(F)F (stereo not shown) [PF94, (Z)-4-(1,4,4,4-tetrafluoro-3-(3,4,5-trichlorophenyl)but-1-en-1-yl)-N-(2-thioxo-2-((2,2,2-trifluoroethyl)amino)ethyl)-2-(trifluoromethyl)benzamide] | 50 to 100% | 50 to 100% |  | A (80-100)
